# Entries after “also recorded” stand apart in the source; their conditions may differ. Square brackets hold non-standard residues; d marks the D form. Peptide text beside a SMILES is read from it. * marks the point of attachment. Desaminotyrosyl = O=C(CCc1ccc(O)cc1)*; NMeY = CN[C@@H](Cc1ccc(O)cc1)C(=O)O; hArg = N=C(N)NCCCC[C@H](N)C(=O)O; Agmatine = N=C(N)NCCCCN*; Nle = CCCC[C@H](N)C(=O)O; Orn = NCCC[C@H](N)C(=O)O; Abu = CC[C@H](N)C(=O)O; Aoc = NCCCCCCCC(=O)O
# Experiments:
# GHRH receptor [1] = biological target: T1, GHRH receptor (Homo sapiens, UniProt Q02643); experiment: GHRH receptor binding, [His1,125I-Tyr10,Nle27]hGHRH(1-32)NH2 ligand competition, human pituitary membrane homogenates (Table 6); details: [His1,125I-Tyr10,Nle27]hGHRH(1-32)NH2, human pituitary membranes
# T1 construct: Normal human pituitaries were purchased from the National Hormone and Peptide Program; tissue National Hormone and Peptide Program (A. F. Parlow); host or cells: normal human pituitary, membrane fraction
# T1 sequence (Q02643 23-423): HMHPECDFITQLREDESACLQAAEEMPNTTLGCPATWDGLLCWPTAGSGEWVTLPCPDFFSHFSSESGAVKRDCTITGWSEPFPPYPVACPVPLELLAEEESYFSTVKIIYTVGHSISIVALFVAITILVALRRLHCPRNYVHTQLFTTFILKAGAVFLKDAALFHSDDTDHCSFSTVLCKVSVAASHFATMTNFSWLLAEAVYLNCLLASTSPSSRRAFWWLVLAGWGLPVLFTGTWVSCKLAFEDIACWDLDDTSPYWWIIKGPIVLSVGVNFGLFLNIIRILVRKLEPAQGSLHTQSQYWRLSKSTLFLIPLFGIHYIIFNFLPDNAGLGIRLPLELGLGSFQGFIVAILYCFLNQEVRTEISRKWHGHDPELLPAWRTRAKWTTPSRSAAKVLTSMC
# Description: Receptor binding assay Ligand competition assay with ^125I-labeled [His^1, Nle^27]hGH-RH(1-32)-NH2 was used to determine the binding affinities of the novel hGH-RH agonists to membrane receptors of rat anterior pituitary cells. The methods used have been described in detail (Halmos G, et al. Receptor 3: 87-97, 1993), here by incorporated by reference. Briefly, radioidonated [His^1, Nle^27]hGH-RH(1-32)-NH2 is prepared by the chloramines-T method. […] IC50 is the dose of the tested peptides causing 50% inhibition of specific binding to receptors.
# (§1) Preparation of human pituitary membrane fraction and receptor binding of GHRH agonists were performed as previously described, by using a sensitive in vitro ligand competition assay based on binding of ^125I-labeled [His^1, Nle^27]hGHRH(1-32)NH2 to human pituitary membrane homogenates. Normal human pituitaries were purchased from the National Hormone and Peptide Program (A. F. Parlow, Los Angeles, County Harbor—UCLA Medical Center, Torrance, Calif.).
# GHRH receptor [2] = biological target: T1, GHRH receptor; experiment: GHRH receptor binding, 125I-labeled JV-1-42 ligand competition, human pituitary membrane homogenates (Table 7); details: 125I-labeled JV-1-42, human pituitary membranes
# Description: as §1, with “JV-1-42” for “[His^1, Nle^27]hGHRH(1-32)NH2”, “Harbor-UCLA” for “Harbor—UCLA”
# GH release [3] = experiment: In vivo GH release after intravenous administration; details: rat, i.v.
# Description: The blood samples are centrifuged, plasma is removed and the GH level is measured by ELISA.
# GH release [4] = experiment: In vivo GH release after subcutaneous administration; details: rat, s.c.
# Description: Blood samples are taken from the jugular vein; 5, 15 and 30 minutes or only 15 and 30 minutes after the injection. The blood samples are centrifuged, plasma is removed and the GH level is measured by ELISA. The results are summarized in terms of potency in Table 9.
IC50 (GHRH receptor [1]),SMILES,other results
80 pM,"CCCC[C@H](NC(=O)[C@@H](NC(=O)[C@H](CC(=O)O)NC(=O)[C@H](CCC(N)=O)NC(=O)[C@H](CC(C)C)NC(=O)[C@H](CC(C)C)NC(=O)[C@H](CCCN)NC(=O)[C@H](CCCNC(=N)N)NC(=O)[C@H](C)NC(=O)[C@H](CO)NC(=O)[C@H](CC(C)C)NC(=O)[C@H](CCC(N)=O)NC(=O)[C@H](CC)NC(=O)[C@H](CC(C)C)NC(=O)[C@@H](NC(=O)[C@H](CCCN)NC(=O)[C@H](CCCNC(=N)N)NC(=O)[C@H](Cc1ccc(O)cc1)NC(=O)[C@H](CO)NC(=O)[C@H](CCC(N)=O)NC(=O)[C@@H](NC(=O)[C@H](Cc1ccccc1)NC(=O)[C@@H](NC(=O)[C@H](C)NC(=O)[C@H](CC(=O)O)NC(=O)[C@@H](C)NC(=O)CCc1ccc(O)cc1)[C@@H](C)CC)[C@@H](C)O)C(C)C)[C@@H](C)CC)C(=O)N[C@@H](CC(=O)O)C(=O)N[C@@H](CCCNC(=N)N)C(=O)NCCCCCCCC(N)=O [Peptide P-21304, [Dat^1, D-Ala^2, Gln^8, Orn^12, Abu^15, Orn^21, Nle^27, Asp^28, Amc^30]hGH-RH(1-30)NH2] (Desaminotyrosyl-[dA]DAIFTQSYR[Orn]VL[Abu]QLSAR[Orn]LLQDI[Nle]DR[Aoc]-NH2)",–
70 pM,"CCCC[C@H](NC(=O)[C@@H](NC(=O)[C@H](CC(=O)O)NC(=O)[C@H](CCC(N)=O)NC(=O)[C@H](CC(C)C)NC(=O)[C@H](CC(C)C)NC(=O)[C@H](CCCN)NC(=O)[C@H](CCCNC(=N)N)NC(=O)[C@H](C)NC(=O)[C@H](CO)NC(=O)[C@H](CC(C)C)NC(=O)[C@H](CCC(N)=O)NC(=O)[C@H](CC)NC(=O)[C@H](CC(C)C)NC(=O)[C@@H](NC(=O)[C@H](CCCN)NC(=O)[C@H](CCCNC(=N)N)NC(=O)[C@H](Cc1ccc(O)cc1)NC(=O)[C@H](CO)NC(=O)[C@@H](NC(=O)[C@@H](NC(=O)[C@H](Cc1ccccc1)NC(=O)[C@@H](NC(=O)[C@H](C)NC(=O)[C@H](CC(=O)O)NC(=O)[C@@H](C)NC(=O)CCc1ccc(O)cc1)[C@@H](C)CC)[C@@H](C)O)[C@@H](C)O)C(C)C)[C@@H](C)CC)C(=O)N[C@@H](CC(=O)O)C(=O)N[C@@H](CCCNC(=N)N)C(=O)N[C@@H](CCCCNC(=N)N)C(N)=O [Peptide P-23254, [Dat^1, D-Ala^2, Thr^8, Orn^12, Abu^15, Orn^21, Nle^27, Asp^28, Har^30]hGH-RH(1-30)NH2] (Desaminotyrosyl-[dA]DAIFTTSYR[Orn]VL[Abu]QLSAR[Orn]LLQDI[Nle]DR[hArg]-NH2)",–
40 pM,"CCCC[C@H](NC(=O)[C@@H](NC(=O)[C@H](CC(=O)O)NC(=O)[C@H](CCC(N)=O)NC(=O)[C@H](CC(C)C)NC(=O)[C@H](CC(C)C)NC(=O)[C@H](CCCN)NC(=O)[C@H](CCCNC(=N)N)NC(=O)[C@H](C)NC(=O)[C@H](CO)NC(=O)[C@H](CC(C)C)NC(=O)[C@H](CCC(N)=O)NC(=O)[C@H](CC)NC(=O)[C@H](CC(C)C)NC(=O)[C@@H](NC(=O)[C@H](CCCN)NC(=O)[C@H](CCCNC(=N)N)NC(=O)[C@H](Cc1ccc(O)cc1)NC(=O)[C@H](CO)NC(=O)[C@H](C)NC(=O)[C@@H](NC(=O)[C@H](Cc1ccccc1)NC(=O)[C@@H](NC(=O)[C@H](C)NC(=O)[C@H](CC(=O)O)NC(=O)[C@@H](C)NC(=O)CCc1ccc(O)cc1)[C@@H](C)CC)[C@@H](C)O)C(C)C)[C@@H](C)CC)C(=O)N[C@@H](CC(=O)O)C(=O)N[C@@H](CCCNC(=N)N)C(=O)N[C@@H](CCCCNC(=N)N)C(N)=O [Peptide P-23256, [Dat^1, D-Ala^2, Ala^8, Orn^12, Abu^15, Orn^21, Nle^27, Asp^28, Har^30]hGH-RH(1-30)NH2] (Desaminotyrosyl-[dA]DAIFTASYR[Orn]VL[Abu]QLSAR[Orn]LLQDI[Nle]DR[hArg]-NH2)",–
–,"CCCC[C@H](NC(=O)[C@@H](NC(=O)[C@H](CC(=O)O)NC(=O)[C@H](CCC(N)=O)NC(=O)[C@H](CC(C)C)NC(=O)[C@H](CC(C)C)NC(=O)[C@H](CCCN)NC(=O)[C@H](CCCNC(=N)N)NC(=O)[C@H](C)NC(=O)[C@H](CO)NC(=O)[C@H](CC(C)C)NC(=O)[C@H](CCC(N)=O)NC(=O)[C@H](CC)NC(=O)[C@H](CC(C)C)NC(=O)[C@@H](NC(=O)[C@H](CCCN)NC(=O)[C@H](CCCNC(=N)N)NC(=O)[C@H](Cc1ccc(O)cc1)NC(=O)[C@H](CO)NC(=O)[C@H](CCC(N)=O)NC(=O)[C@@H](NC(=O)[C@H](Cc1ccccc1)NC(=O)[C@@H](NC(=O)[C@H](C)NC(=O)[C@H](CC(=O)O)NC(=O)[C@@H](C)NC(=O)[C@H](Cc1ccc(O)cc1)NC)[C@@H](C)CC)[C@@H](C)O)C(C)C)[C@@H](C)CC)C(=O)N[C@@H](CC(=O)O)C(=O)N[C@@H](CCCNC(=N)N)C(=O)NC [Peptide P-27403, [N—Me-Tyr^1, D-Ala^2, Gln^8, Orn^12, Abu^15, Orn^21, Nle^27, Asp^28]hGH-RH(1-29)NH—CH3] (H-[NMeY][dA]DAIFTQSYR[Orn]VL[Abu]QLSAR[Orn]LLQDI[Nle]DR-NHMe)",IC50 (GHRH receptor [2]): 160 pM; GH response after intravenous administration (in words) (GH release [3]): most potent; GH response after subcutaneous administration (in words) (GH release [4]): unusually high responses; also recorded: especially greater growth hormone levels than hGH-RH or JI-38

SMILES,IC50 (GHRH receptor [1]),other results
"CCCC[C@H](NC(=O)[C@@H](NC(=O)[C@H](CC(=O)O)NC(=O)[C@H](CCC(N)=O)NC(=O)[C@H](CC(C)C)NC(=O)[C@H](CC(C)C)NC(=O)[C@H](CCCN)NC(=O)[C@H](CCCNC(=N)N)NC(=O)[C@H](C)NC(=O)[C@H](CO)NC(=O)[C@H](CC(C)C)NC(=O)[C@H](CCC(N)=O)NC(=O)[C@H](CC)NC(=O)[C@H](CC(C)C)NC(=O)[C@@H](NC(=O)[C@H](CCCN)NC(=O)[C@H](CCCNC(=N)N)NC(=O)[C@H](Cc1ccc(O)cc1)NC(=O)[C@H](CO)NC(=O)[C@H](CC(N)=O)NC(=O)[C@@H](NC(=O)[C@H](Cc1ccccc1)NC(=O)[C@@H](NC(=O)[C@H](C)NC(=O)[C@H](CC(=O)O)NC(=O)[C@H](C)NC(=O)CCc1ccc(O)cc1)[C@@H](C)CC)[C@@H](C)O)C(C)C)[C@@H](C)CC)C(=O)N[C@@H](CC(=O)O)C(=O)NCCCCNC(=N)N [JI-34, reference compound] (Desaminotyrosyl-ADAIFTNSYR[Orn]VL[Abu]QLSAR[Orn]LLQDI[Nle]D-Agmatine; N-terminus and C-terminus assumed)",1370 pM,–
"CCCC[C@H](NC(=O)[C@@H](NC(=O)[C@H](CC(=O)O)NC(=O)[C@H](CCC(N)=O)NC(=O)[C@H](CC(C)C)NC(=O)[C@H](CC(C)C)NC(=O)[C@H](CCCN)NC(=O)[C@H](CCCNC(=N)N)NC(=O)[C@H](C)NC(=O)[C@H](CO)NC(=O)[C@H](CC(C)C)NC(=O)[C@H](CCC(N)=O)NC(=O)[C@H](CC)NC(=O)[C@H](CC(C)C)NC(=O)[C@@H](NC(=O)[C@H](CCCN)NC(=O)[C@H](CCCNC(=N)N)NC(=O)[C@H](Cc1ccc(O)cc1)NC(=O)[C@H](CO)NC(=O)[C@@H](NC(=O)[C@@H](NC(=O)[C@H](Cc1ccccc1)NC(=O)[C@@H](NC(=O)[C@H](C)NC(=O)[C@H](CC(=O)O)NC(=O)[C@H](C)NC(=O)CCc1ccc(O)cc1)[C@@H](C)CC)[C@@H](C)O)[C@@H](C)O)C(C)C)[C@@H](C)CC)C(=O)N[C@@H](CC(=O)O)C(=O)NCCCCNC(=N)N [JI-36, reference compound] (Desaminotyrosyl-ADAIFTTSYR[Orn]VL[Abu]QLSAR[Orn]LLQDI[Nle]D-Agmatine; N-terminus and C-terminus assumed)",1820 pM,–

# — patent US9079974B2, “GH-RH analogs with potent agonistic effects” (The University of Miami, priority 2011, dated 2015)
